Experimental data as given in ChEMBL document CHEMBL1149521, “Synthesis of novel keto-ACE analogues as domain-selective angiotensin I-converting enzyme inhibitors” (Bioorg Med Chem Lett, 2006).

Tests used:
[1] = target: T1, Angiotensin-converting enzyme (Oryctolagus cuniculus, UniProt P12822); test: Inhibition of rabbit testis recombinant ACE C domain
T1 sequence (P12822 whole entry): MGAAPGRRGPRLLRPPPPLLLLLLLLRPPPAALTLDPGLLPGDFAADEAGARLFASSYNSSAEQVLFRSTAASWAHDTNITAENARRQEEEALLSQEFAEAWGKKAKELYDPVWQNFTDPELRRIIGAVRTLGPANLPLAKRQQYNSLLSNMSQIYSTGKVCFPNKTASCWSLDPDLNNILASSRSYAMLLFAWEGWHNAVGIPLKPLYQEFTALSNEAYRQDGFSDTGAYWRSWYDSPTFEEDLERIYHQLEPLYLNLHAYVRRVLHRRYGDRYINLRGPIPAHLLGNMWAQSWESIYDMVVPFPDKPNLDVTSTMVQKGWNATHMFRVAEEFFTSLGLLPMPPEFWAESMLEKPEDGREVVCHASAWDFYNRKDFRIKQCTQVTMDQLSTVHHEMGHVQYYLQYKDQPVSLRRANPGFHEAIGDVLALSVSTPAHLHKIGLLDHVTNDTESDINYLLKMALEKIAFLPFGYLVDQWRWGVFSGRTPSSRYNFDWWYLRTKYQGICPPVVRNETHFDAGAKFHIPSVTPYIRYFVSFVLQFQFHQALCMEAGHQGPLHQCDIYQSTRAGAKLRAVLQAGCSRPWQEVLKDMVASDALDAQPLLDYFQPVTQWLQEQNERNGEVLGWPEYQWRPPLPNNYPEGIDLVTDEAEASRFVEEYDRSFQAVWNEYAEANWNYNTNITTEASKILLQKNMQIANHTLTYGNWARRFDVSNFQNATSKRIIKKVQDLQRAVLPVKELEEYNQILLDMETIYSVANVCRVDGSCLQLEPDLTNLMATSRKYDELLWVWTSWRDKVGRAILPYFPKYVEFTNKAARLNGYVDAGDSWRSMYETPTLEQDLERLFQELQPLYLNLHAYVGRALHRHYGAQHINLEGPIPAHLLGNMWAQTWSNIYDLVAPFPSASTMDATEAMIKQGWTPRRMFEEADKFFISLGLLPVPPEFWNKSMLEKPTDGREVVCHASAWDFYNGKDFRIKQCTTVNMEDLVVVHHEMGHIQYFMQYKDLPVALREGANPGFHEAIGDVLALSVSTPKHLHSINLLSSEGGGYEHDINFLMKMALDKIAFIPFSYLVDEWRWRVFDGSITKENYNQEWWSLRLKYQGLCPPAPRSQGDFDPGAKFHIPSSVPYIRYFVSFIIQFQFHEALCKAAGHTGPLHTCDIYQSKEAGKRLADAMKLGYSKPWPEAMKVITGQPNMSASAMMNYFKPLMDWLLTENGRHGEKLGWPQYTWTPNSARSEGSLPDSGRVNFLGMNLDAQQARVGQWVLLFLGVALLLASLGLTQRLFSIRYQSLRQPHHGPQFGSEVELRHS

[2] = Selectivity for rabbit testis ACE C domain over human ACE N domain
[3] = target: Angiotensin-converting enzyme (Homo sapiens, UniProt P12821); test: Inhibition of recombinant ACE N domain
Chain of Angiotensin-converting enzyme (Homo sapiens, UniProt P12821) (P12821 whole entry): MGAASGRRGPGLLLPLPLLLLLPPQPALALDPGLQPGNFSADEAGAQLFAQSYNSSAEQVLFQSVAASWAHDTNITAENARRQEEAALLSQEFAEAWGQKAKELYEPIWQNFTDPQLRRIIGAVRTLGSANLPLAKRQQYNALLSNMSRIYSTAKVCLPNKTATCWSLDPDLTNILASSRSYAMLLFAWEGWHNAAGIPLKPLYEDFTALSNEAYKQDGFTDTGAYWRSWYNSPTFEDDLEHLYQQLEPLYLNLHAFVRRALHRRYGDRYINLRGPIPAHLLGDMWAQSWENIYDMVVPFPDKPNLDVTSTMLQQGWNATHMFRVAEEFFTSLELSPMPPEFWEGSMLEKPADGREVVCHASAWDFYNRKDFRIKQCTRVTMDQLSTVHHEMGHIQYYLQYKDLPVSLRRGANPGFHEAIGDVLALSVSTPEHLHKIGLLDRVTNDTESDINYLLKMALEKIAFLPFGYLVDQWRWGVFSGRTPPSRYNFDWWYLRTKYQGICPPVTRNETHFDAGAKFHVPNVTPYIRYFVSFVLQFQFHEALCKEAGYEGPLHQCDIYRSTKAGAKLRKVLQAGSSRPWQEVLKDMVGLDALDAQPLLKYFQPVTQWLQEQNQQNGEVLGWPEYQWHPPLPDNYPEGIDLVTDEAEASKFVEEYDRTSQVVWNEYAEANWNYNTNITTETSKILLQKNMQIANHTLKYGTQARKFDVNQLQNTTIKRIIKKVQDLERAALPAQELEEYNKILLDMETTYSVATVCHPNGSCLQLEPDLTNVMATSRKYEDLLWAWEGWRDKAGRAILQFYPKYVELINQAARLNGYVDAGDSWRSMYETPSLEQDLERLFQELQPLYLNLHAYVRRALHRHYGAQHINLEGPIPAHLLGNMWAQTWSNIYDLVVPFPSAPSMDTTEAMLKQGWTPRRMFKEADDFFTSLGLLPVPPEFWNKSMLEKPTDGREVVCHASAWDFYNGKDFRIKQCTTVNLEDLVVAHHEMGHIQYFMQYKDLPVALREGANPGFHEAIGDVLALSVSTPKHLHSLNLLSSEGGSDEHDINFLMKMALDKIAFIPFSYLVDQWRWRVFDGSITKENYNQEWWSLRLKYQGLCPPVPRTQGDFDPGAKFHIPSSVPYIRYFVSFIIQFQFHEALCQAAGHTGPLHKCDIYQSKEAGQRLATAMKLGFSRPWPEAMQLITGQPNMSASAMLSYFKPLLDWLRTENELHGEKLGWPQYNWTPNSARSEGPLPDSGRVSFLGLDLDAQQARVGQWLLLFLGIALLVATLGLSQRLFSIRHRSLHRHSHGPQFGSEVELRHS

Ki [1] [µM]	Ratio Ki [2]	Ki [3] [µM]	Compound
0.8	245	–	O=C(CCC(=O)[C@H](Cc1ccccc1)NC(=O)c1ccccc1)N[C@@H](Cc1c[nH]c2ccccc12)C(=O)O
313	0.1	43	CC(C)(C)OC(=O)N[C@@H](Cc1ccccc1)C(=O)CCC(=O)N[C@@H](Cc1ccccc1)C(=O)O
144	0.2	–	CC(C)(C)OC(=O)N[C@@H](Cc1ccccc1)C(=O)CCC(=O)N1CCC[C@H]1C(=O)O
381	0.04	13.3	CC(C)(C)OC(=O)N[C@@H](Cc1ccccc1)C(=O)CCC(=O)N[C@@H](Cc1c[nH]c2ccccc12)C(=O)O
23.7	3.6	–	O=C(CCC(=O)[C@H](Cc1ccccc1)NC(=O)c1ccccc1)N[C@@H](Cc1ccccc1)C(=O)O

Compound	Ki [1] [µM]	Ratio Ki [2]	Ki [3] [µM]
NCCCC[C@H](N[C@@H](CCc1ccccc1)C(=O)O)C(=O)N1CCC[C@H]1C(=O)O [LISINOPRIL ANHYDROUS]	0.051	–	–
